Consider 21 compounds from patent US12692261B2, “Substituted heterocyclic compounds and therapeutic uses thereof” (Bayer Aktiengesellschaft, priority 2020, dated 2026).

One experiment concerns the target T1, full-length human CSNK1D (Homo sapiens, UniProt P48730).
T1 construct: N-terminal Glutathion-S-Transferase (GST) and full-length human CSNK1D; purchased Life Technologies PV3665; host or cells: baculovirus infected insect cells
Nature of the experiment: CSNK1D Assay (ADP-Glo, 1 μM ATP). In kind it is biochemical. The conditions noted are these: Table 3, read-out: CSNK1D IC50 [mol/l] (median). In outline: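 ADP-Glo luminescence reports ADP generated by GST-fused full-length human CSNK1D (insect-cell expressed, about 0.5 ng/μL) acting on a biotinylated peptide at 1 μM ATP. Test compounds were pre-bound to enzyme 15 min at 22° C in 50 mM HEPES pH 7.5.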
(ADP-Glo first removes unused ATP, then detects ADP through luciferase.)

Experiment [1] addresses T2, full-length human CSNK1A1 (Homo sapiens, UniProt P48729).
T2 construct: N-terminal Glutathion-S-Transferase (GST) and full-length human CSNK1A1; purchased Life Technologies PV4174; host or cells: baculovirus infected insect cells
Nature of the experiment: CSNK1A1 High ATP Assay (ADP-Glo, 1 mM ATP).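 Also: 30 min kinase reaction at 22 °C with 100 µM peptide substrate.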 In kind it is biochemical. As to conditions: Table 3, read-out: CSNK1A1 high ATP assay IC50 [mol/l] (median). The method in brief:
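Kinase activity taken as ADP generated, quantified by ADP-Glo luminescence after 1 h ATP depletion and 1 h detection at 22 °C. Enzyme is GST–full-length human CSNK1A1 (insect cell-expressed), pre-bound to compound for 15 min, with phosphopeptide substrate and 1 mM ATP.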

T1 sequence (P48730 whole entry): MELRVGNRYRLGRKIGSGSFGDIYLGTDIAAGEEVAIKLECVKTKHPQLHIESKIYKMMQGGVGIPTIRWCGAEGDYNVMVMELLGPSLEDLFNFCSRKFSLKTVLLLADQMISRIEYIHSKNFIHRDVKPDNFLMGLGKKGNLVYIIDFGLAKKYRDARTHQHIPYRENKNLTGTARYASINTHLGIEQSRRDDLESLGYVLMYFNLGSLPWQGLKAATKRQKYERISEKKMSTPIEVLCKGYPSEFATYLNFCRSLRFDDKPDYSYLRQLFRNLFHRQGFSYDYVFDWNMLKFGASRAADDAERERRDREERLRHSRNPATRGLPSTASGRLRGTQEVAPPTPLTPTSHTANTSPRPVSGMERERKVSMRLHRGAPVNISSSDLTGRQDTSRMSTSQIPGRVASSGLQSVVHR
T2 sequence (P48729 whole entry): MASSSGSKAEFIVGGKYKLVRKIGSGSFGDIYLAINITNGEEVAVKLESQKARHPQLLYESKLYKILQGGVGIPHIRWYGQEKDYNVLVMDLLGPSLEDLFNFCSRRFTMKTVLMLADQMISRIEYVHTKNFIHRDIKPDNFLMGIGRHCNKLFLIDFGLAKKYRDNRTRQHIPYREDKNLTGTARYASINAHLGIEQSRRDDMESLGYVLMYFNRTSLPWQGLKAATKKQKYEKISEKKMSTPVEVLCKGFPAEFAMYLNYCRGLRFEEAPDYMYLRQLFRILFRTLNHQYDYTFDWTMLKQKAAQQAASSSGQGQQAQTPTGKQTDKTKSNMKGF

Take `CN1CCN(c2cc(F)nc3c(-c4ccccn4)c(-c4ccnc(NC(=O)C(CC(F)F)c5ccc(F)cc5)c4)[nH]c23)CC1` (racemic) [Example 56, (2RS)-4,4-difluoro-N-{4-[5-fluoro-7-(4-methylpiperazin-1-yl)-3-(pyridin-2-yl)-1H-pyrrolo[3,2-b]pyridin-2-yl]pyridin-2-yl}-2-(4-fluorophenyl)butanamide]: the IC50 at full-length human CSNK1D amounted to 6.67 nM; in experiment [1], 3.19 nM.
For `COc1cnc2c(-c3ccccn3)c(-c3ccnc(NC(=O)C(CC(F)F)c4ccc(F)cc4)c3)[nH]c2c1` (single isomer, unassigned) [Example 83, 4,4-difluoro-2-(4-fluorophenyl)-N-{4-[6-methoxy-3-(pyridin-2-yl)-1H-pyrrolo[3,2-b]pyridin-2-yl]pyridin-2-yl}butanamide] the same measures were 35.3 nM and 9.86 nM.
In the same order, the values of `O=C(Nc1cc(-c2[nH]c3c(OC[C@@H]4COCCO4)cc(F)nc3c2-c2ccccn2)ccn1)C(CC(F)F)c1ccc(F)cc1` (single isomer, unassigned) [Example 59, (2R or S)—N-{4-[7-{[(2S)-1,4-dioxan-2-yl]methoxy}-5-fluoro-3-(pyridin-2-yl)-1H-pyrrolo[3,2-b]pyridin-2-yl]pyridin-2-yl}-4,4-difluoro-2-(4-fluorophenyl)butanamide] are 19.6 nM and 12.7 nM.
For `O=C(Nc1cc(-c2[nH]c3ncc(F)nc3c2-c2ccccn2)ccn1)C(CC(F)F)c1ccc(F)cc1` (single isomer, unassigned) [Example 64, (2R or S)-4,4-difluoro-2-(4-fluorophenyl)-N-{4-[2-fluoro-7-(pyridin-2-yl)-5H-pyrrolo[2,3-b]pyrazin-6-yl]pyridin-2-yl}butanamide] the same measures were 40.4 nM and 23 nM.
For `O=C(Nc1cc(-c2[nH]c3c(OCC(F)F)ncnc3c2-c2ccccn2)ccn1)C(CC(F)F)c1ccc(F)cc1` (single isomer, unassigned) [Example 79, (2R or S)—N-{4-[4-(2,2-difluoroethoxy)-7-(pyridin-2-yl)-5H-pyrrolo[3,2-d]pyrimidin-6-yl]pyridin-2-yl}-4,4-difluoro-2-(4-fluorophenyl)butanamide], the IC50 at full-length human CSNK1D was 3.27 nM; in experiment [1], 3.1 nM.
For `O=C(Nc1cc(-c2[nH]c3c(N4CCOCC4)cc(F)nc3c2-c2ccccn2)ccn1)C(CC(F)F)c1ccc(F)cc1` (racemic) [Example 69, (2RS)-4,4-difluoro-N-{4-[5-fluoro-7-(morpholin-4-yl)-3-(pyridin-2-yl)-1H-pyrrolo[3,2-b]pyridin-2-yl]pyridin-2-yl}-2-(4-fluorophenyl)butanamide] the same measures were 9.76 nM and 10.4 nM.
In the same order, the values of `Cc1ccnc2c(-c3ccccn3)c(-c3ccnc(NC(=O)C(CC(F)F)c4ccc(F)cc4)c3)[nH]c12` (stereo not drawn) [Example 84, 4,4-difluoro-2-(4-fluorophenyl)-N-{4-[7-methyl-3-(pyridin-2-yl)-1H-pyrrolo[3,2-b]pyridin-2-yl]pyridin-2-yl}butanamide] are 7.35 nM and 4.77 nM.
For `COc1cnc2c(-c3ccccn3)c(-c3ccnc(NC(=O)C(CC(F)F)c4ccc(F)cc4)c3)[nH]c2c1` (stereo not drawn) [Example 81, 4,4-difluoro-2-(4-fluorophenyl)-N-{4-[6-methoxy-3-(pyridin-2-yl)-1H-pyrrolo[3,2-b]pyridin-2-yl]pyridin-2-yl}butanamide] the same measures were 5.85 nM and 4.02 nM.
`O=C(Nc1cc(-c2[nH]c3ccnnc3c2-c2ccccn2)ccn1)C(CC(F)F)c1ccc(F)cc1` (single isomer, unassigned) [Example 67, (2R or S)-4,4-difluoro-2-(4-fluorophenyl)-N-{4-[7-(pyridin-2-yl)-5H-pyrrolo[3,2-c]pyridazin-6-yl]pyridin-2-yl}butanamide]: the IC50 on full-length human CSNK1D came to 29.7 nM; in experiment [1], 22 nM.
Turning to `O=C(Nc1cc(-c2[nH]c3c(O[C@H]4CCOC4)ncnc3c2-c2ccccn2)ccn1)C(CC(F)F)c1ccc(F)cc1` (mixture of isomers) [Example 72, (2RS)-4,4-difluoro-2-(4-fluorophenyl)-N-{4-[4-{[(3S)-oxolan-3-yl]oxy}-7-(pyridin-2-yl)-5H-pyrrolo[3,2-d]pyrimidin-6-yl]pyridin-2-yl}butanamide], the IC50 worked out at 7.3 nM on full-length human CSNK1D and 7.1 nM in experiment [1].
For `O=C(Nc1cc(-c2[nH]c3cc(Cl)nnc3c2-c2ccccn2)ccn1)C(CC(F)F)c1ccc(F)cc1` (racemic) [Example 68, (2RS)—N-{4-[3-chloro-7-(pyridin-2-yl)-5H-pyrrolo[3,2-c]pyridazin-6-yl]pyridin-2-yl}-4,4-difluoro-2-(4-fluorophenyl)butanamide] the same measures were 14.4 nM and 6.93 nM.
`O=C(Nc1cc(-c2[nH]c3c(OCC(F)F)ncnc3c2-c2ccccn2)ccn1)C(CC(F)F)c1ccc(F)cc1` (racemic) [Example 78, (2RS)—N-{4-[4-(2,2-difluoroethoxy)-7-(pyridin-2-yl)-5H-pyrrolo[3,2-d]pyrimidin-6-yl]pyridin-2-yl}-4,4-difluoro-2-(4-fluorophenyl)butanamide]: the IC50 at full-length human CSNK1D is 5.15 nM; in experiment [1] it was 5.16 nM.
Regarding `O=C(Nc1cc(-c2[nH]c3c(O[C@H]4CCOC4)ncnc3c2-c2ccccn2)ccn1)C(CC(F)F)c1ccc(F)cc1` (single isomer, unassigned) [Example 73, (2R or S)-4,4-difluoro-2-(4-fluorophenyl)-N-{4-[4-{[(3S)-oxolan-3-yl]oxy}-7-(pyridin-2-yl)-5H-pyrrolo[3,2-d]pyrimidin-6-yl]pyridin-2-yl}butanamide], the values for the IC50 (at full-length human CSNK1D; in experiment [1]) were 4.02 nM and 4.16 nM, respectively.
In the same order, the values of `O=C(Nc1cc(-c2[nH]c3ccc(F)nc3c2-c2ccccn2)ccn1)C(CC(F)F)c1ccc(F)cc1` (racemic) [Example 1, 4,4-difluoro-2-(4-fluorophenyl)-N-{4-[5-fluoro-3-(pyridin-2-yl)-1H-pyrrolo[3,2-b]pyridin-2-yl]pyridin-2-yl}butanamide] are 15.7 nM and 61.3 nM.
For `O=C(Nc1cc(-c2[nH]c3ncc(F)nc3c2-c2ccccn2)ccn1)C(CC(F)F)c1ccc(F)cc1` (single isomer, unassigned) [Example 63, (2R or S)-4,4-difluoro-2-(4-fluorophenyl)-N-{4-[2-fluoro-7-(pyridin-2-yl)-5H-pyrrolo[2,3-b]pyrazin-6-yl]pyridin-2-yl}butanamide] the same measures were 3.77 nM and 1.48 nM.
For `O=C(Nc1cc(-c2[nH]c3cc(Cl)cnc3c2-c2ccccn2)ccn1)C(CC(F)F)c1ccc(F)cc1` (single isomer, unassigned) [Example 88, (+)—N-{4-[6-chloro-3-(pyridin-2-yl)-1H-pyrrolo[3,2-b]pyridin-2-yl]pyridin-2-yl}-4,4-difluoro-2-(4-fluorophenyl)butanamide] the same measures were 7.42 nM and 4.72 nM.
As to `O=C(Nc1cc(-c2[nH]c3c(OC[C@H]4COCCO4)cc(F)nc3c2-c2ccccn2)ccn1)C(CC(F)F)c1ccc(F)cc1` (single isomer, unassigned) [Example 51, (2R or S)—N-{4-[7-{[(2R)-1,4-dioxan-2-yl]methoxy}-5-fluoro-3-(pyridin-2-yl)-1H-pyrrolo[3,2-b]pyridin-2-yl]pyridin-2-yl}-4,4-difluoro-2-(4-fluorophenyl)butanamide], the values for the IC50 (on full-length human CSNK1D; in experiment [1]) were 4.1 nM and 4.65 nM, respectively.
In the same order, the values of `O=C(Nc1cc(-c2[nH]c3ccc(F)nc3c2-c2ccccn2)ccn1)[C@@H](CC(F)F)c1ccc(F)cc1` (single isomer, unassigned) [Example 2] are 2.63 nM and 5 nM.
For `O=C(Nc1cc(-c2[nH]c3c(OC[C@@H]4COCCO4)cc(F)nc3c2-c2ccccn2)ccn1)C(CC(F)F)c1ccc(F)cc1` (single isomer, unassigned) [Example 58, (2R or S)—N-{4-[7-{[(2S)-1,4-dioxan-2-yl]methoxy}-5-fluoro-3-(pyridin-2-yl)-1H-pyrrolo[3,2-b]pyridin-2-yl]pyridin-2-yl}-4,4-difluoro-2-(4-fluorophenyl)butanamide] the same measures were 3.03 nM and 3.56 nM.
For `COc1cnc2c(-c3ccccn3)c(-c3ccnc(NC(=O)C(CC(F)F)c4ccc(F)cc4)c3)[nH]c2c1` (single isomer, unassigned) [Example 82, 4,4-difluoro-2-(4-fluorophenyl)-N-{4-[6-methoxy-3-(pyridin-2-yl)-1H-pyrrolo[3,2-b]pyridin-2-yl]pyridin-2-yl}butanamide] the same measures were 3.17 nM and 2.68 nM.
Regarding `O=C(Nc1cc(-c2[nH]c3c(O[C@H]4CCOC4)cc(F)nc3c2-c2ccccn2)ccn1)C(CC(F)F)c1ccc(F)cc1` (single isomer, unassigned) [Example 55, (2R or S)-4,4-difluoro-N-{4-[5-fluoro-7-{[(3S)-oxolan-3-yl]oxy}-3-(pyridin-2-yl)-1H-pyrrolo[3,2-b]pyridin-2-yl]pyridin-2-yl}-2-(4-fluorophenyl)butanamide], the IC50 stood at 24.9 nM at full-length human CSNK1D and 18.3 nM in experiment [1].
